PubChem BioAssay (NCI)
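Following 48 hours of exposure in 96-well plates, responses at five concentrations were used to interpolate endpoints linearly. GI50: concentration for 50% inhibition of growth. TGI marks complete inhibition of growth.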

How the values were obtained:
Assay in all cases: NCI-60 cell line screen, 48 h
HCT-15 colon = test system: HCT-15 colon
SK-OV-3 ovarian = test system: SK-OV-3 ovarian
HS 578T breast = test system: HS 578T breast
UACC-257 melanoma = test system: UACC-257 melanoma
A498 renal = test system: A498 renal
TK-10 renal = test system: TK-10 renal
ACHN renal = test system: ACHN renal
HT29 colon = test system: HT29 colon
SNB-75 CNS = test system: SNB-75 CNS
KM12 colon = test system: KM12 colon
MDA-MB-435 = test system: MDA-MB-435
PC-3 prostate = test system: PC-3 prostate
MOLT-4 leukemia = test system: MOLT-4 leukemia
DU-145 prostate = test system: DU-145 prostate
NCI-H460 lung = test system: NCI-H460 lung
HOP-92 NSCLC = test system: HOP-92 NSCLC
OVCAR-5 ovarian = test system: OVCAR-5 ovarian
SK-MEL-28 melanoma = test system: SK-MEL-28 melanoma
NCI-H23 lung = test system: NCI-H23 lung
SF-268 CNS = test system: SF-268 CNS
RPMI-8226 leukemia = test system: RPMI-8226 leukemia
COLO 205 colon = test system: COLO 205 colon
M14 melanoma = test system: M14 melanoma
CCRF-CEM leukemia = test system: CCRF-CEM leukemia
RXF 393 renal = test system: RXF 393 renal
EKVX NSCLC = test system: EKVX NSCLC
SN12C renal = test system: SN12C renal
UACC-62 melanoma = test system: UACC-62 melanoma
SK-MEL-2 melanoma = test system: SK-MEL-2 melanoma
UO-31 renal = test system: UO-31 renal
OVCAR-4 ovarian = test system: OVCAR-4 ovarian
NCI/ADR-RES ovarian = test system: NCI/ADR-RES ovarian
786-0 renal = test system: 786-0 renal
MALME-3M melanoma = test system: MALME-3M melanoma
SW-620 colon = test system: SW-620 colon
SF-539 CNS = test system: SF-539 CNS

## NC(N)=Nc1ccc(Oc2ccc(Nc3ccc(Cl)c(C(F)(F)F)c3)cc2)cc1
HCT-15 colon
  GI50: 1940 nM
  TGI: 4230 nM
SK-OV-3 ovarian
  GI50: 2180 nM
  TGI: 5070 nM
HS 578T breast
  GI50: 1900 nM
  TGI: 4640 nM
UACC-257 melanoma
  GI50: 1640 nM
  TGI: 3260 nM
A498 renal
  GI50: 1280 nM
  TGI: 2550 nM
TK-10 renal
  GI50: 1820 nM
  TGI: 3420 nM
ACHN renal
  GI50: 1800 nM
  TGI: 3240 nM
HT29 colon
  GI50: 1600 nM
  TGI: 3090 nM
SNB-75 CNS
  GI50: 1260 nM
  TGI: 2610 nM
KM12 colon
  GI50: 1650 nM
  TGI: 3110 nM
MDA-MB-435
  GI50: 1590 nM
  TGI: 3020 nM
PC-3 prostate
  GI50: 1510 nM
  TGI: 3010 nM
MOLT-4 leukemia
  GI50: 1830 nM
  TGI: 4620 nM
DU-145 prostate
  GI50: 1740 nM
  TGI: 3160 nM
NCI-H460 lung
  GI50: 1780 nM
  TGI: 3320 nM
HOP-92 NSCLC
  GI50: 1380 nM
  TGI: 2800 nM
OVCAR-5 ovarian
  GI50: 1710 nM
  TGI: 3150 nM
SK-MEL-28 melanoma
  GI50: 1640 nM
  TGI: 3050 nM
NCI-H23 lung
  GI50: 1640 nM
  TGI: 3150 nM
SF-268 CNS
  GI50: 1620 nM
  TGI: 3390 nM
RPMI-8226 leukemia
  GI50: 2460 nM
  TGI: 6970 nM
COLO 205 colon
  GI50: 1730 nM
  TGI: 3480 nM
M14 melanoma
  GI50: 1650 nM
  TGI: 3220 nM
CCRF-CEM leukemia
  GI50: 2210 nM
  TGI: 6910 nM
RXF 393 renal
  GI50: 1580 nM
  TGI: 3040 nM
EKVX NSCLC
  GI50: 1760 nM
  TGI: 3560 nM
SN12C renal
  GI50: 1660 nM
  TGI: 3190 nM
UACC-62 melanoma
  GI50: 1700 nM
  TGI: 3270 nM
SK-MEL-2 melanoma
  GI50: 1760 nM
  TGI: 3200 nM
UO-31 renal
  GI50: 1840 nM
  TGI: 4510 nM
OVCAR-4 ovarian
  GI50: 1730 nM
  TGI: 3270 nM
NCI/ADR-RES ovarian
  GI50: 10400 nM
  TGI: 27700 nM
786-0 renal
  GI50: 1740 nM
  TGI: 3290 nM
MALME-3M melanoma
  GI50: 1790 nM
  TGI: 3990 nM
SW-620 colon
  GI50: 1700 nM
  TGI: 3250 nM
SF-539 CNS
  GI50: 1690 nM
  TGI: 3190 nM
